Assay [1] deals with A549/OPNluc cells. In words: WST assay for cell growth / cell viability. It is filed as cell-based, human. Particulars: Homo sapiens, A549, A549/OPNluc cells, 48±4 hours, WST-1; read-out: IC50 (concentration for 50% inhibition of cell growth). The text has this: (§1) A reporter vector pOPN1-luc obtained by the insertion of a human OPN promoter sequence (−765 to 23) into the multiple cloning site of pGL-3 basic vector (Promega) expresses luciferase when transfected into animal cells. The pOPN1-luc was transfected into a human non-small cell lung cancer-derived cell line A549 together with pPUR (Clontech) that expresses a puromycin resistance gene (puromycin-N-acetyl-transferase gene), and then cells expressing luciferase which could grow a puromycin-supplemented medium were selected. The selected cells were named “A549/OPNluc cells” and used for observation of luciferase expression inhibitory effect under control of OPN promoter, as described below.
(§2) A test compound was added to a culture containing A549/OPNluc cells to observe its influence on the amount of luciferase expressed in the cells. Here, it can be considered that when the test compound has a cell cytotoxity or cell growth inhibitory effect, the total expression level of luciferase is reduced due to a reduction in the number of living cells that depends on the concentration of the test compound, and therefore the luciferase expression inhibitory effect of the test compound under control of OPN promoter cannot be properly evaluated. For this reason, WST assay for quantification of cell proliferation ability or cell viability by colorimetric measurement was firstly performed to determine IC50 (concentration for 50% inhibition of cell growth) of the test compound for cell growth. Then, luciferase activity measurement was performed to determine EC50 (concentration for 50% inhibition of luciferase expression) of the test compound for luciferase expression under control of OPN promoter.
A549/OPNluc cells were suspended in DMEM medium containing 10% fetal calf serum (FCS) and 1% penicillin/streptomycin (P/S) at 3×10^4 cells/mL to obtain a cell suspension, and then the cell suspension was dispensed into each well of a 96-well plate in an amount of 100 μL. In order to perform the assay in triplicate, wells were prepared for a control group, and 3 wells were prepared for each test compound-treated group at each concentration. After the dispensation, the 96-well plate was incubated in a CO2 incubator (at 37° C. and 5% CO2) for 24±4 hours.
The present compound was dissolved in dimethylsulfoxide (DMSO) to obtain a 50 mmol/L solution, and the compound solution was stored at −80° C. The compound solution was diluted with DMSO in 2-fold dilution series (usually, in the range of 0.31 mmol/L to 20 mmol/L) to prepare test compound solutions whose concentration varied by two fold for WST assay.
Each solution of only DMSO (control) and the diluted test compound (sample) was dispensed into each well containing the cell suspension in an amount of 0.5 μL (200-fold dilution). The solution in each well was mixed with a vortex mixer, and then the 96-well plate was incubated in a CO2 incubator (at 37° C. and 5% CO2) for 48±4 hours. Then, Premix WST-1 Reagent (TAKARA BIO INC.) was added in an amount of 10 μL to each well. The solution in each well was mixed with a vortex mixer, and then the 96-well plate was incubated at 37° C. and 5% CO2. After 60 minutes or 120 minutes, the absorbance values (450 nm) were measured with a microplate reader (Bio-Rad; Benchmark or Thermo Scientific; Varioskan Flash).
The absorbance values of the control wells and the sample wells at each concentration were input into an Excel file to determine the percentages of absorbance values of the sample wells at each concentration with to the average absorbance value of the control wells. From the determined values, a fitted curve was determined by the method of least squares to calculate IC50.
A general note: Tetrazolium dyes change colour on reduction, which living cells bring about.

Assay [2] concerns human OPN promoter (pOPN1-luc) in A549/OPNluc cells. In words: Luciferase assay: luciferase expression under control of OPN promoter. As to conditions: Homo sapiens. It is filed as cell-based.
Source text: as §1, §2
The same steps as in the above-mentioned WST assay were performed in which each solution of only DMSO (control) or the diluted test compound (sample) was added in an amount of 0.5 μL to each well containing the cell suspension to achieve 200-fold dilution, and the solution in each well was mixed with a vortex mixer, and the 96-well plate was incubated in a CO2 incubator (at 37° C. and 5% CO2) for 48±4 hours.
Luciferase Assay Substrate (hereinafter referred to as “LAS”) supplied in Luciferase Assay Systems (Promega: Cat #E1500) was dissolved in Luciferase Assay Buffer (LAB) to prepare a luciferase reagent. 5×Cell Culture Lysis Reagent (hereinafter referred to as “CCLR”) was diluted by 5 times with water to prepare 1×CCLR.
After the incubation for 48±4 hours, the medium in each well was completely removed, and 1×CCLR was dispensed into each well in an amount of 50 μL. The 96-well plate was allowed to stand at room temperature for 30 minutes, and then 1×CCLR in each well was used as an assay sample. The luciferase reagent (100 μL) was placed in a tube for chemiluminescence measurement, and the assay sample (20 μL) was added to the tube and mixed with the luciferase reagent to measure chemiluminescence (Relative Luminescence Intensity: RLU) using TB 20/20 (Promega) or GloMax 20/20 (Promega).
The RLU values of the control wells and the sample wells at each concentration were input into an Excel file, and the percentages of RLU values of the sample wells at each concentration to the average RLU value of the control wells were determined. From these values, a fitted curve was determined by the method of least squares to calculate EC50. Also, the percentages of RLU values of the sample wells at each concentration to the average RLU value of the control wells were divided by the percentages of absorbance values of the compounds in WST assay at the same concentrations as those of this assay (to the control), and a fitted curve was determined from the calculated values by the method of least squares to calculate corrected EC50.

Setting [3] is: A549, A549/OPNluc cells, 48±4 hours, read-out: EC50 (concentration for 50% inhibition of luciferase expression).
The mark [4] stands for this setting: A549, EC50 corrected for decrease in viable cells (RLU % divided by WST %), read-out: corrected EC50.

Read-outs that look alike come from different tables or passages of the source.

Take `Nc1c(Oc2ccc(O)cc2)cccc1C(=O)CCNC(=O)c1ccc(O)cc1` [Compound 1, N-(3-(2-Amino-3-(4-hydroxyphenoxy)phenyl)-3-oxopropyl)-4-hydroxybenzamide]: the IC50 in assay [1] turned out to be 65.9 µM. Further, the figures for the EC50 in assay [2] (setting [3]) and in assay [2] (setting [4]) were 17.1 µM and 24.5 µM, respectively.

As to `O=C(NCCc1c[nH]c2c(Oc3ccc(O)cc3)cccc12)c1ccc(O)cc1` [Compound 2, 4-Hydroxy-N-(2-(7-(4-hydroxyphenoxy)-1H-indol-3-yl)ethyl)benzamide], in assay [1], the IC50 came to 51 µM. Also, the values for the EC50 in assay [2] (setting [3]) and in assay [2] (setting [4]) were 26.8 µM and 60.3 µM, respectively.

For the compound `O=C(NCCC(=O)c1cccc(O)c1O)c1ccc(Oc2ccc(O)cc2)cc1` [Compound 3, N-(3-(2,3-Dihydroxyphenyl)-3-oxopropyl)-4-(4-hydroxyphenoxy)benzamide], the IC50 in assay [1] was 32.5 µM. Besides, the EC50 in assay [2] (setting [3]) is 32.2 µM; in assay [2] (setting [4]) it was 103 µM.

As to `COc1ccc(C(=O)NCCC(=O)c2cccc(Oc3ccc(O)cc3)c2N)cc1` [Compound 4, N-(3-(2-Amino-3-(4-hydroxyphenoxy)phenyl)-3-oxopropyl)-4-methoxybenzamide], the IC50 in assay [1] came out at 67.1 µM. Besides, the EC50 in assay [2] (setting [3]) is 27.6 µM; in assay [2] (setting [4]), 37 µM.

As to `COc1ccc(Oc2cccc(C(=O)CCNC(=O)c3ccc(OC)cc3)c2N)cc1` [Compound 5, N-(3-(2-Amino-3-(4-methoxyphenoxy)phenyl)-3-oxopropyl)-4-methoxybenzamide], the IC50 in assay [1] was found to be 64.9 µM. The EC50 in assay [2] (setting [3]) came out at 19.5 µM; in assay [2] (setting [4]), 22.6 µM.

In the case of `COc1cccc(C(=O)NCCC(=O)c2cccc(Oc3ccc(O)cc3)c2N)c1` [Compound 7, N-(3-(2-Amino-3-(4-hydroxyphenoxy)phenyl)-3-oxopropyl)-3-methoxybenzamide], in assay [1], the IC50 came to 63.3 µM. In addition, the values for the EC50 in assay [2] (setting [3]) and in assay [2] (setting [4]) were 35.6 µM and 43.7 µM, respectively.

Consider `CC(=O)NCCC(=O)c1cccc(Oc2ccc(O)cc2)c1N` [Compound 8, N-(3-(2-Amino-3-(4-hydroxyphenoxy)phenyl)-3-oxopropyl)-acetamide], for which, in assay [1], the IC50 was more than 100 µM. The EC50 in assay [2] (setting [3]) is more than 100 µM.

`Nc1c(Oc2ccc(O)cc2)cccc1C(=O)CCNC(=O)c1ccc(F)cc1` [Compound 9, N-(3-(2-Amino-3-(4-hydroxyphenoxy)phenyl)-3-oxopropyl)-4-fluorobenzamide]: the IC50 in assay [1] was 93.7 µM. The results for the EC50 in assay [2] (setting [3]) and in assay [2] (setting [4]) were 41.5 µM and 65.6 µM, respectively.

On to `Nc1c(Oc2ccc(O)cc2)cccc1C(=O)CCNC(=O)C1CCCCC1` [Compound 10, N-(3-(2-Amino-3-(4-hydroxyphenoxy)phenyl)-3-oxopropyl)-cyclohexanecarboxamide], for which the IC50 in assay [1] worked out at 52.8 µM. Besides, the EC50 in assay [2] (setting [3]) came out at 31.5 µM; in assay [2] (setting [4]), 41.7 µM.

Turning to `Nc1c(Oc2ccc(O)cc2)cccc1C(=O)CCNC(=O)C1CCOCC1` [Compound 11, N-(3-(2-Amino-3-(4-hydroxyphenoxy)phenyl)-3-oxopropyl)-(tetrahydro-2H-pyran-4-yl)-carboxamide], the IC50 in assay [1] turned out to be 200 µM. In addition, the EC50 in assay [2] (setting [3]) is 166 µM.

Consider `COc1cccc(C(=O)CCNC(=O)c2ccc(O)cc2)c1N` [Compound 12, N-(3-(2-Amino-3-methoxyphenyl)-3-oxopropyl)-4-hydroxybenzamide], for which the IC50 in assay [1] was more than 200 µM. Moreover, the EC50 in assay [2] (setting [3]) is more than 200 µM.

With `Nc1c(O)cccc1C(=O)CCNC(=O)c1ccc(O)cc1` [Compound 13, N-(3-(2-Amine-3-hydroxyphenyl)-3-oxopropyl)-4-hydroxybenzamide], in assay [1], the IC50 is more than 200 µM. Also, the EC50 in assay [2] (setting [3]) is more than 200 µM.

On to `Cc1ccc(Oc2cccc(C(=O)CCNC(=O)c3ccc(O)cc3)c2N)cc1` [Compound 14, N-(3-(2-Amino-3-(4-methylphenoxy)phenyl)-3-oxopropyl)-4-hydroxybenzamide], for which the IC50 in assay [1] came out at 61.1 µM. Moreover, the results for the EC50 in assay [2] (setting [3]) and in assay [2] (setting [4]) were 5.6 µM and 5 µM, respectively.

As to `Nc1c(Oc2ccc(C(F)(F)F)cc2)cccc1C(=O)CCNC(=O)c1ccc(O)cc1` [Compound 15, N-(3-(2-Amino-3-(4-(trifluoromethyl)phenoxy)phenyl)-3-oxopropyl)-4-hydroxybenzamide], the IC50 in assay [1] was determined as 35.4 µM. Further, the EC50 is 5.6 µM in assay [2] (setting [3]) and 5.3 µM in assay [2] (setting [4]).

For the compound `COc1ccc(Oc2cccc(C(=O)CCNC(=O)c3ccc(O)cc3)c2N)cc1OC` [Compound 16, N-(3-(2-Amino-3-(3,4-dimethoxyphenoxy)phenyl)-3-oxopropyl)-4-hydroxybenzamide], in assay [1], the IC50 worked out at 34.9 µM. Moreover, the EC50 in assay [2] (setting [3]) was determined as 9.8 µM; in assay [2] (setting [4]), 12.5 µM.

Regarding `Nc1c(Oc2ccc(Cl)cc2)cccc1C(=O)CCNC(=O)c1ccc(O)cc1` [Compound 17, N-(3-(2-Amino-3-(4-chlorophenoxy)phenyl)-3-oxopropyl)-4-hydroxybenzamide], the IC50 in assay [1] worked out at 47.7 µM. The EC50 in assay [2] (setting [3]) was 3.7 µM; in assay [2] (setting [4]) it was 4.2 µM.

For `O=C1NCCc2c1[nH]c1c(Oc3ccc(O)cc3)cccc21` [Compound 18, 8-(4-Hydroxyphenoxy)-1,2,3,4-tetrahydro-β-carboline-1-one], the IC50 in assay [1] was 49.4 µM. Moreover, the EC50 in assay [2] (setting [3]) was more than 50 µM.

As to `CC(=O)Nc1ccc(C(=O)NCCC(=O)c2cccc(Oc3ccc(Cl)cc3)c2N)cc1` [Compound 20, N-(3-(2-amino-3-(4-chlorophenoxy)phenyl)-3-oxopropyl)-4-acetylaminobenzamide], in assay [1], the IC50 was more than 100 µM. The EC50 amounted to 16.3 µM in assay [2] (setting [3]) and 18 µM in assay [2] (setting [4]).

`COc1ccc(Oc2cccc(C(=O)NCCNC(=O)c3ccc(O)cc3)c2)cc1` [Compound 21, N-(2-(3-(4-Methoxyphenoxy)benzoylamino)ethyl)-4-hydroxybenzamide]: the IC50 in assay [1] is 95.9 µM. Also, the EC50 stood at 16.1 µM in assay [2] (setting [3]) and 17 µM in assay [2] (setting [4]).

With `COc1ccc(Oc2ccccc2C(=O)NCCNC(=O)c2ccc(O)cc2)cc1` [Compound 22, N-(2-(2-(4-Methoxyphenoxy)benzoylamino)ethyl)-4-hydroxybenzamide], the IC50 in assay [1] is more than 100 µM. Also, the EC50 in assay [2] (setting [3]) was found to be 42.2 µM; in assay [2] (setting [4]), 50.4 µM.

The record behind these values is patent US11040937B2, “Amide derivative” (TOHOKU UNIVERSITY, priority 2014, dated 2021).
